For 15 compounds, IC50 results are on record in patent publication US20260297081A1, “COMPOUNDS AND METHODS OF TREATING CANCERS” (Cullgen Inc., priority 2023, published 2026).

One assay has as its system MCF7 cells. The assay is described as follows: Anti-proliferation (viability) of MCF7 cells (Table 7, FIG. 2B). It counts as cell-based. The note with it: Homo sapiens, MCF7, MCF7 cells, 3-6 days, 10-point serial dilution; read-out: GI IC50 in MCF-7.
For a further assay, the system named is Calu-1 cells. Briefly: Anti-proliferation (viability) of NSCLC Calu-1 cells, 3 days (Table 7, FIG. 2B). In kind it is cell-based. The note with it: Homo sapiens, 72 h; Calu-1 cells, 3 days, 10-point serial dilution; read-out: GI IC50 in Calu-1. Summed up:
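Heterobifunctional compounds are tested in 10-point serial dilutions on Calu-1 (3-day exposure) and T47D (6-day exposure) cells.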

Bounds are passed on as bounds.

Usually IC50 stands for the midpoint of a concentration-inhibition curve. Consider `CC(=O)c1c(C)c2cnc(Nc3ccc(N4CCN(CC(=O)N5CCC(Nc6nc(NC(C)C)ccc6C(=O)Nc6cn(C)c(C7CC7)n6)CC5)CC4)cn3)nc2n(C2CCCC2)c1=O` [CPD-279, 2-((1-(2-(4-(6-((6-acetyl-8-cyclopentyl-5-methyl-7-oxo-7,8-dihydropyrido[2,3-d]pyrimidin-2-yl)amino)pyridin-3-yl)piperazin-1-yl)acetyl)piperidin-4-yl)amino)-N-(2-cyclopropyl-1-methyl-1H-imidazol-4-yl)-6-(isopropylamino)nicotinamide], for which the figures for the IC50 in the assay with MCF7 cells and in the assay with Calu-1 cells were > 100 nM and 10 to 50 nM, respectively.

With `CC(=O)c1c(C)c2cnc(Nc3ccc(CN4CCN(CC(=O)N5CCC(Nc6nc(NC(C)C)ccc6C(=O)Nc6cn7c(n6)CCC7)CC5)CC4)cn3)nc2n(C2CCCC2)c1=O` [CPD-564, 2-((1-(2-(4-((6-((6-acetyl-8-cyclopentyl-5-methyl-7-oxo-7,8-dihydropyrido[2,3-d]pyrimidin-2-yl)amino)pyridin-3-yl)methyl)piperazin-1-yl)acetyl)piperidin-4-yl)amino)-N-(6,7-dihydro-5H-pyrrolo[1,2-a]imidazol-2-yl)-6-(isopropylamino)nicotinamide], the concentration for half-maximal inhibition (IC50) in the assay on MCF7 cells was > 100 nM; with Calu-1 cells it was 10 to 50 nM.

Consider `[2H]C([2H])([2H])Nc1ccc(C(=O)Nc2ccc(N(C)C)nn2)c(NC2CC3(C2)CN(C(=O)CN2CCN(C(C)c4ccc(Nc5ncc6c(C)c(C(C)=O)c(=O)n(C7CCCC7)c6n5)nc4)CC2)C3)n1` (stereo not drawn) [CPD-488, 2-((2-(2-(4-(1-(6-((6-acetyl-8-cyclopentyl-5-methyl-7-oxo-7,8-dihydropyrido[2,3-d]pyrimidin-2-yl)amino)pyridin-3-yl)ethyl)piperazin-1-yl)acetyl)-2-azaspiro[3.3]heptan-6-yl)amino)-N-(6-(dimethylamino)pyridazin-3-yl)-6-((methyl-d3)amino)nicotinamide], for which the results for the IC50 with MCF7 cells and with Calu-1 cells were < 50 nM and ≤ 10 nM, respectively.

For the compound `[2H]C([2H])([2H])Nc1ccc(C(=O)Nc2cn(C)c(C3CC3)n2)c(NC2CCN(C(=O)CCN3CCN(c4ccc(Nc5ncc6c(C)c(C(C)=O)c(=O)n(C7CCCC7)c6n5)nc4)CC3)C2)n1` (stereo not drawn) [CPD-273, 2-((1-(3-(4-(6-((6-acetyl-8-cyclopentyl-5-methyl-7-oxo-7,8-dihydropyrido[2,3-d]pyrimidin-2-yl)amino)pyridin-3-yl)piperazin-1-yl)propanoyl)pyrrolidin-3-yl)amino)-N-(2-cyclopropyl-1-methyl-1H-imidazol-4-yl)-6-((methyl-d3)amino)nicotinamide], the IC50 with MCF7 cells is > 100 nM; in the assay with Calu-1 cells, ≥ 50 nM.

As for `CC(=O)c1c(C)c2cnc(Nc3ccc(N4CCN(CC(=O)NCC5CC(Nc6nc(NC(C)C)ccc6C(=O)Nc6cn(C)c(C7CC7)n6)C5)CC4)cn3)nc2n(C2CCCC2)c1=O` (stereo not drawn) [CPD-277, 2-((3-((2-(4-(6-((6-acetyl-8-cyclopentyl-5-methyl-7-oxo-7,8-dihydropyrido[2,3-d]pyrimidin-2-yl)amino)pyridin-3-yl)piperazin-1-yl)acetamido)methyl)cyclobutyl)amino)-N-(2-cyclopropyl-1-methyl-1H-imidazol-4-yl)-6-(isopropylamino)nicotinamide], the IC50 with MCF7 cells is > 100 nM; in the assay on Calu-1 cells, ≤ 10 nM.

In the case of `[2H]C([2H])([2H])Nc1ccc(C(=O)Nc2ccc(N(C)C)nn2)c(N[C@H]2CC[C@H](C(=O)N3CCC(N4CCN(c5ccc(Nc6ncc7c(C)c(C(C)=O)c(=O)n(C8CCCC8)c7n6)nc5)CC4)C3)CC2)n1` (stereo partly drawn) [CPD-476, 2-((trans-4-(3-(4-(6-((6-acetyl-8-cyclopentyl-5-methyl-7-oxo-7,8-dihydropyrido[2,3-d]pyrimidin-2-yl)amino)pyridin-3-yl)piperazin-1-yl)pyrrolidine-1-carbonyl)cyclohexyl)amino)-N-(6-(dimethylamino)pyridazin-3-yl)-6-((methyl-d3)amino)nicotinamide], the 50% inhibitory concentration (IC50) in the assay on MCF7 cells is < 50 nM; with Calu-1 cells, ≤ 10 nM.

As for `CC(=O)c1c(C)c2cnc(Nc3ccc(N4CC5(CN(CC(=O)NCC6CC(Nc7nc(NC(C)C)ccc7C(=O)Nc7ccc(N(C)C)nn7)C6)C5)C4)cn3)nc2n(C2CCCC2)c1=O` (stereo not drawn) [CPD-468, 2-((3-((2-(6-(6-((6-acetyl-8-cyclopentyl-5-methyl-7-oxo-7,8-dihydropyrido[2,3-d]pyrimidin-2-yl)amino)pyridin-3-yl)-2,6-diazaspiro[3.3]heptan-2-yl)acetamido)methyl)cyclobutyl)amino)-N-(6-(dimethylamino)pyridazin-3-yl)-6-(isopropylamino)nicotinamide], the IC50 is > 100 nM in the assay with MCF7 cells and 10 to 50 nM with Calu-1 cells.

On to `CC(=O)c1c(C)c2cnc(Nc3ccc(CN4CCN(CC(=O)N5CCC6(CCC(Nc7nc(NC(C)C)ccc7C(=O)Nc7cn(C)c(C8CC8)n7)C6)C5)CC4)cn3)nc2n(C2CCCC2)c1=O` (stereo not drawn) [CPD-548, 2-((2-(2-(4-((6-((6-acetyl-8-cyclopentyl-5-methyl-7-oxo-7,8-dihydropyrido[2,3-d]pyrimidin-2-yl)amino)pyridin-3-yl)methyl)piperazin-1-yl)acetyl)-2-azaspiro[4.4]nonan-7-yl)amino)-N-(2-cyclopropyl-1-methyl-1H-imidazol-4-yl)-6-(isopropylamino)nicotinamide], for which the half-maximal inhibitory concentration (IC50) with MCF7 cells is < 50 nM; in the assay on Calu-1 cells, ≤ 10 nM.

In the case of `[2H]C([2H])([2H])Nc1ccc(C(=O)Nc2cn(C)c(C3CC3)n2)c(NC2CC(NC(=O)N3CCN(c4ccc(Nc5ncc6c(C)c(C(C)=O)c(=O)n(C7CCCC7)c6n5)nc4)CC3)C2)n1` (stereo not drawn) [CPD-287, 4-(6-((6-acetyl-8-cyclopentyl-5-methyl-7-oxo-7,8-dihydropyrido[2,3-d]pyrimidin-2-yl)amino)pyridin-3-yl)-N-(3-((3-((2-cyclopropyl-1-methyl-1H-imidazol-4-yl)carbamoyl)-6-((methyl-d3)amino)pyridin-2-yl)amino)cyclobutyl)piperazine-1-carboxamide], the values for the IC50 in the assay on MCF7 cells and with Calu-1 cells were > 100 nM and ≥ 50 nM, respectively.

Consider `[2H]C([2H])([2H])Nc1ccc(C(=O)Nc2cn3c(n2)CCC3)c(N[C@H]2CC[C@H](C(=O)N3CCC(N4CCN(c5ccc(Nc6ncc7c(C)c(C(C)=O)c(=O)n(C8CCCC8)c7n6)nc5)CC4)C3)CC2)n1` (stereo partly drawn) [CPD-569, 2-((trans-4-(3-(4-(6-((6-acetyl-8-cyclopentyl-5-methyl-7-oxo-7,8-dihydropyrido[2,3-d]pyrimidin-2-yl)amino)pyridin-3-yl)piperazin-1-yl)pyrrolidine-1-carbonyl)cyclohexyl)amino)-N-(6,7-dihydro-5H-pyrrolo[1,2-a]imidazol-2-yl)-6-((methyl-d3)amino)nicotinamide], for which the values for the IC50 in the assay on MCF7 cells and with Calu-1 cells were > 100 nM and ≥ 50 nM, respectively.

With `CC(=O)c1c(C)c2cnc(Nc3ccc(N4CCC(N(C)CC(=O)N5CCC(Nc6nc(NC(C)C)ccc6C(=O)Nc6cc(C)n(C)n6)CC5)CC4)cn3)nc2n(C2CCCC2)c1=O` [CPD-465, 2-((1-(N-(1-(6-((6-acetyl-8-cyclopentyl-5-methyl-7-oxo-7,8-dihydropyrido[2,3-d]pyrimidin-2-yl)amino)pyridin-3-yl)piperidin-4-yl)-N-methylglycyl)piperidin-4-yl)amino)-N-(1,5-dimethyl-1H-pyrazol-3-yl)-6-(isopropylamino)nicotinamide], the concentration for half-maximal inhibition (IC50) in the assay with MCF7 cells was < 50 nM; with Calu-1 cells, ≤ 10 nM.

In the case of `CC(=O)c1c(C)c2cnc(Nc3ccc(CN4CCN(C(=O)CN5CC6(CC(Nc7nc(NC(C)C)ccc7C(=O)Nc7ccc(N(C)C)nn7)C6)C5)CC4)cn3)nc2n(C2CCCC2)c1=O` [CPD-538, 2-((2-(2-(4-((6-((6-acetyl-8-cyclopentyl-5-methyl-7-oxo-7,8-dihydropyrido[2,3-d]pyrimidin-2-yl)amino)pyridin-3-yl)methyl)piperazin-1-yl)-2-oxoethyl)-2-azaspiro[3.3]heptan-6-yl)amnion)-N-(6-(dimethylamino)pyridazin-3-yl)-6-(isopropylamino)nicotinamide], the results for the IC50 with MCF7 cells and in the assay on Calu-1 cells were 50 to 100 nM and ≤ 10 nM, respectively.

Regarding `CC(C)Nc1ccc(C(=O)Nc2ccc(N(C)C)nn2)c(NC2CCC(C(=O)N3CCC(N4CCN(c5ccc(Nc6ncc7ccc(=O)n(C8CCCC8)c7n6)nc5)CC4)C3)CC2)n1` (stereo not drawn) [CPD-535, 2-((4-(3-(4-(6-((8-cyclopentyl-7-oxo-7,8-dihydropyrido[2,3-d]pyrimidin-2-yl)amino)pyridin-3-yl)piperazin-1-yl)pyrrolidine-1-carbonyl)cyclohexyl)amino)-N-(6-(dimethylamino)pyridazin-3-yl)-6-(isopropylamino)nicotinamide], the values for the half-maximal inhibitory concentration (IC50) in the assay on MCF7 cells and in the assay with Calu-1 cells were 50 to 100 nM and 10 to 50 nM, respectively.

For the compound `CCN1CCc2cc(-c3nc(Nc4ccc(CN5CCN(CC(=O)N6CC7(CC(Nc8nc(NC(C)C)ccc8C(=O)Nc8ccc(N(C)C)nn8)C7)C6)CC5)cn4)ncc3F)ccc2C1=O` [CPD-553, N-(6-(dimethylamino)pyridazin-3-yl)-2-((2-(2-(4-((6-((4-(2-ethyl-1-oxo-1,2,3,4-tetrahydroisoquinolin-6-yl)-5-fluoropyrimidin-2-yl)amino)pyridin-3-yl)methyl)piperazin-1-yl)acetyl)-2-azaspiro[3.3]heptan-6-yl)amino)-6-(isopropylamino)nicotinamide], the IC50 is > 100 nM with MCF7 cells and ≥ 50 nM in the assay on Calu-1 cells.

Turning to `CC(=O)c1c(C)c2cnc(Nc3ccc(N4CCN(C(C)CC(=O)NC56CC(Nc7nc(NC(C)C)ccc7C(=O)Nc7ccc(N(C)C)nn7)(C5)C6)CC4)cn3)nc2n(C2CCCC2)c1=O` (stereo not drawn) [CPD-504, 2-((3-(3-(4-(6-((6-acetyl-8-cyclopentyl-5-methyl-7-oxo-7,8-dihydropyrido[2,3-d]pyrimidin-2-yl)amino)pyridin-3-yl)piperazin-1-yl)butanamido)bicyclo[1.1.1]pentan-1-yl)amino)-N-(6-(dimethylamino)pyridazin-3-yl)-6-(isopropylamino)nicotinamide], the half-maximal inhibitory concentration (IC50) is < 50 nM in the assay on MCF7 cells and ≤ 10 nM in the assay on Calu-1 cells.
